According to paper PMC4426631, “Insect antimicrobial peptides show potentiating functional interactions against Gram-negative bacteria” (Proceedings of the Royal Society B: Biological Sciences, 2015):
Cf = 5(6)-carboxyfluorescein

Columns and labels:
Type in all cases: cell-based
[1] = system: E. coli strain D31; experiment: Coarse growth inhibition assay, E. coli strain D31
Procedure: (§1) Initial coarse-level growth inhibition assays were carried out with concentrations of peptides up to 200 μM. Further assays of growth rates (bacteriostatic activity) and cell viability (bactericidal activity) were carried out on a finer scale. […] Growth rates were derived from spline-fitted growth curves to optical density (OD) data, while cell viability was assessed by plating cultures and counting colony-forming units after 18 h. Dose–response curves were fitted to both the bacteriostatic and bactericidal data with Markov Chain Monte Carlo parameter optimization (further details in electronic supplementary material). […]
v) Coarse growth inhibition assays.
Bact eria in mid-logarithmic phase were used for all growth inhibition assays. The initial OD600 for all assa ys was set to 0.001 to ensure the full contact of each b acteri al cell with added AMPs.
(§2) The assa ys were carried out in 96-well plates (Griener Bio On e, Frick enh ausen, Germ an y) in an Eon™ Microplate Spectrophotometer (BioTek Instruments, VT, USA) for 16 h while r eco rding of changes in the OD600 at 20- min intervals. For each assa y, a control culture was included with medium onl y. The AMPs used inthis assay are sh own in Tables S1and S4. vi) Dose response curv e quantif ication
Growth inhibition assay. E. coli cells (DSM 498) wer e grown in Muller-Hinton broth (Sigma-Aldrich) for 14 h at 30 °C and count ed using a FastRead 102 counting cham ber ( Immune S yst ems, UK). The suspension w as adjusted in fresh mediu m to achieve a cell density of 5 x 104 per 80 µl. […]
(§3) 1.25, 2.5, 5, 10, and 20 μM) in rows, and 10 µl volumes of hymenoptaecin (final concentrations of 0, 0.625, 1.25, 2.5, 5, and 10 μM) in columns. […] Th e OD600 was measured ever y hour for 12 consecutive hours using a SpectraMax M2e microplate reader (Molecular Devices, Sunnyvale, USA). […]
Cell viability. […] Bacteria were grown for 18 h with AMPs before the number of viable cells was assessed. […] Colony-forming units (CFUs), each representing a viable cell from the culture, were counted at a dilution where each individual CFU could be distinguished.

[2] = system: E. coli 498; experiment: Bactericidal cell viability assay (CFU after 18 h), E. coli 498
Procedure: as §1
(§4) v) Coarse growth inhibition assays. […]
as §2, with “For each assa y, a control culture was included with medium onl y.” left out, “ication […]” for “ication”
as §3
(§5) Cell viability. […] Bacteria were grown for 18 h with AMPs before the number of viable cells was assessed. […]

[3] = system: E. coli 498; experiment: Bacteriostatic growth-rate dose-response assay, E. coli 498; settings: abaecin in combination with hymenoptaecin
Procedure: as §1, §4
as §2, with “For each assa y, a control culture was included with medium onl y.” left out, “ication […]” for “ication”
as §3, §5

Q: Which “antibacterial activity, abaecin alone” value ([1]; E. coli D31, 20 µM (figure 1a) to 200 µM (data not shown), OD600, 16 h) does the source give for “abaecin: proline-rich peptide abaecin, species version not specified at the place (Cf-FVPYNPPRPGQSKPFPSFPGHGPFNPKIQWPYPLPNPGH-NH2)” here?
A: unable to detect any antibacterial activity

Q: What about the “antibacterial activity, abaecin alone” value ([1]; E. coli, tested alone at concentrations of up to 200 μM) of the same substance?
A: no detectable activity

Q: And the “impact on bacterial growth or survival, abaecin alone” value ([1]; even at a concentration of 200 µM)?
A: no impact on bacterial growth or survival

Q: What about the “impact on cell viability, abaecin alone” value ([2]; E. coli 498, concentrations tested up to 20 µM, CFU after 18 h) of the same substance?
A: no impact on cell viability

Q: What about the “lowest abaecin concentration that enhanced the bactericidal effects of hymenoptaecin” value ([2]; E. coli, in combination with hymenoptaecin) of the same substance?
A: 1.25 µM

Q: And the “effect of abaecin on the MIC of hymenoptaecin” value [3]?
A: reduce the minimal inhibitory concentration of hymenoptaecin
